# Laboratory results reported in patent publication US20170265465A1, “BIORATIONAL TREATMENT PRODUCTS AND METHODS OF USING SAME” (Board of Trustees of Michigan State University, priority 2014, published 2017).
# How the values were obtained:
# [1] = test system: creeping bentgrass (Argostis palustris) fairway; test: Example 2, 2013 urea (46-0-0)/canola oil study: turfgrass quality rating; format: in vivo; details: scale 1-9, 7 = acceptable
# Excerpt: This study was established on an irrigated, creeping bentgrass (Argostis palustris) fairway (˜0.5 in (1.3 cm) height of cut) on the same research center as in Example 1. The study was established in four replications of a randomized block design, using 2 ft.×10.5 ft. (0.6 m×3.2 m) plots with 6 in. (0.15 m) alleys. Prior to the study, diseases were controlled with as-needed fungicide applications. Fertility was maintained at approximately 0.1 lb. N/1000 ft^2 (0.49 g/m^2)/mo. […] Turfgrass quality ratings and biomass ratings were performed as described in Example 1. Clippings were also collected as described in Example 1.
# Treatments of sprayable urea (46-0-0) (The Andersons, Inc.) hereinafter “Urea (46-0-0)” and Civitas/Harmonizer fungicide/turf pigment (Suncor Energy Corp.) were applied initially on Aug. 22, 2013.
# [2] = test system: irrigated putting green; test: Example 15: turfgrass color rating, TCM 500 NDVI Color Meter; format: in vivo; details: Sept. 16, TCM 500 NDVI Turf Color Meter
# Description: The study was established in four replications of a randomized block design utilizing 2 ft.×21 ft. plots with 6 inch alleys. Treatments were initially applied on Sep. 13, 2016 with the same sprayer and under the same conditions described in Example 1. Turfgrass quality ratings and biomass ratings were performed as described in Example 1. The plots were trimmed on September 19, October 8, and Oct. 24, 2016 and clippings were also collected as described in Example 1.
# Treatments were re-applied on Sep. 28, 2016 and Oct. 11, 2016. Turfgrass visual growth and quality ratings were taken periodically, along with turfgrass color ratings as taken with a Spectrum Technologies, Inc. TCM 500 NDVI Color Meter and a Spectrum Technologies, Inc. FieldScout CM 1000 Chlorophyll Meter. The study was irrigated as needed to prevent wilt. No background fertility was applied to the study area. The area was sprayed with 26GT fungicide on Sep. 27, 2016 to control dollar spot disease.
compound,measurement,setting,value
"NC(N)=O [Urea (46-0-0), urea]",Turfgrass Quality,"[1]; Sep. 3, 2013, one application, per 1000 ft^2, as far as in the treatment: Urea 0.1 lb. N, Canola Oil Concentrate/Bio-Adjuvant 10 fl. oz., Civitas 8 + Harmonizer 0.5 fl. oz.",6.5 ef
same,Turfgrass Quality,"[1]; Sep. 3, 2013, Urea 0.2 lb. N/1000 ft^2, Canola Oil 10 fl. oz. or Civitas 8 + Harmonizer 0.5 fl. oz. where in the treatment",6.75 de
same,Turfgrass Quality,"[1]; Sep. 3, 2013, Urea 0.3 lb. N/1000 ft^2, Canola Oil Bio-Adjuvant 10 fl. oz. or Civitas 8 + Harmonizer 0.5 fl. oz. where in the treatment",7.5 bc
same,"Turfgrass Color (Greenness), MEAN, NDVI reading","[2]; Trt. 4, 0.1 lb N/1000 sq. ft. /14 days",0.761
same,"Turfgrass Color (Greenness), MEAN, NDVI reading","[2]; Trt. 5, 0.05 lb N/1000 sq. ft. /14 days",0.755
